Experimental data taken from patent US10654896B2, “FoxP3-binding peptides and uses thereof” (FUNDACIÓN PARA LA INVESTIGACIÓN MÉDICA APLICADA, priority 2016, dated 2020).
Where no end group is shown, it is not given here.

How the values were obtained:
Hepa-129 cells = assay: Tumor rejection experiment, Hepa-129 cells s.c.; type: in vivo, C3H/HeN mice; details: peptide 50 μg/mice/day, days 10 to 20, combined with anti-PD1 antibodies
Protocol: For tumor rejection experiments, Hepa-129 cells (10^6 cells/mouse), were injected subcutaneously (sc) in C3H/HeN mice (n=6). Ten days later, when the tumor reached 5 mm in diameter, mice were randomly divided into different experimental groups. A group of mice were treated i.p. with anti-PD1 antibodies (BE0146, BioXcell) (50 μg/mouse). Antibody administration was repeated one week after this first administration. A group of mice treated with anti-PD1 also received the cyclic peptide SEQ ID NO: 50 from days 10 to 20 (50 μg/mice/day). Tumor size, presented as the average of two perpendicular diameters (millimeters), was measured at regular intervals. Mice were sacrificed when the mean tumor diameter was greater than 20 mm. Mice were housed in appropriated animal care facilities during the experimental period and handled following the international guidelines required for experimentation with animals. The experiments were approved by institutional ethical committee.

human FOXP3 (FOXP3-6His) = biological target: T1, human FOXP3 (FOXP3-6His) (Homo sapiens, UniProt Q9BZS1); assay: Peptide binding to FOXP3 by surface plasmon resonance (SPR)
T1 construct: 6xHis (C); made in house; host or cells: E. coli BL21 (DE3)
T1 sequence (Q9BZS1 1-431): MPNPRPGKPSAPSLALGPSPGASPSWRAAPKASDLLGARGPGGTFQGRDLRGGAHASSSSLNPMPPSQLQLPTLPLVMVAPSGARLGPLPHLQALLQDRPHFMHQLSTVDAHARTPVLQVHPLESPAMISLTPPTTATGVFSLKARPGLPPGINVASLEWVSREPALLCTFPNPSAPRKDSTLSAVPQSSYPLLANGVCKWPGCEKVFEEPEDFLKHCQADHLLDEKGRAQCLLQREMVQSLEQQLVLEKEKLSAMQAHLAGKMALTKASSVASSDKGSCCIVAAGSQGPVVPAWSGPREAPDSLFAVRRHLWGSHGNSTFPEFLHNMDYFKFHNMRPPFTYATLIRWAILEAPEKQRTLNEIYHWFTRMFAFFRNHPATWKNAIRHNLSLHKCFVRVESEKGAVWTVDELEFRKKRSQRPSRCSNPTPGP
Procedure, shortened: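 C-terminally 6His-tagged human FOXP3, expressed in E. coli BL21(DE3) and Ni-affinity purified, was amine-coupled to a GLM chip (ProteOn XPR36). Peptides at 1–20 μM injected in triplicate in PBS, 0.005% Tween 20, pH 7.4, at 30 μl/min, with interspot reference. Binding given as ratio to reference peptide p60.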

CT26 tumor cells = assay: Anti-tumor vaccination experiment (AH1 in IFA), CT26 challenge; type: in vivo, BALB/c
Protocol: For anti-tumor vaccination experiments, BALB/c animals immunized with 50 nanomol/mice of peptide AH1 emulsified in incomplete Freund adjuvant (IFA) (Casares et al., 2010, supra), were treated intraperitoneally with 10 nanomol/mice of the indicated Treg inhibitory peptide SEQ ID NO: 51 of the invention or with saline daily during 10 days. At day 10, mice were injected s.c. with 10^6 CT26 tumor cells. Tumor size was monitored twice a week with a calliper and it was expressed according to the formula V=(length×width2)/2. Mice were sacrificed when tumor size reached a volume greater than 4 cm^3.

[1] = Human liver microsomal stability; type: in vitro ADME; details: human liver microsomes
Protocol: (§1) The data collected were analyzed to calculate a half-life (t1/2, min) for tested peptides at a final concentration of 1 μM. Briefly, 5 μL of stock solution of tested peptide (10 mM) were diluted in 495 μL of 1:1 Methanol/Water (final concentration of 100 μM, 50% MeOH). Then, 50 μL of this intermediate solution were diluted in 450 μL of 100 mM potassium phosphate buffer to a concentration of 10 μM (working solution, 5% MeOH). The NADPH regenerating system contains β-Nicotinamide adenine dinucleotide phosphate (Sigma, Cat. # N0505), Isocitric acid (Sigma, Cat. #11252) and Isocitric dehydrogenase (Sigma, Cat. #12002) at a final concentration of 1 unit/mL at incubation.
(§2) Human liver microsomes were obtained from BD Gentest (Cat. #452117) and mouse liver microsomes from Xenotech (Cat. # M1000), to a final concentration of 0.7 mg protein/mL. A volume of 10 μL of peptide solution and 80 μL of microsome solution were added to a 96-well plate and incubated for 10 min at 37° C. The reaction was started by the addition of 10 μL of NADPH regenerating system and stopped by the addition of 300 μL of stop solution (ACN at 4° C., including 100 ng/mL Tolbutamide and 100 ng/mL of Labetalol as internal standard) at different incubation times (0, 5, 10, 20, 30 and 60 min). Concentrations of test compound were quantified by LC-MS/MS methodologies (Shimadzu LC 20-AD/API4000) using peak area ratio of analyte/internal standard and the percent loss of parent compound was calculated under each time point to determine the half-life.

[2] = Mouse liver microsomal stability; type: in vitro ADME; details: mouse liver microsomes
Protocol: as §1, §2

[3] = 20 min, read-out: % Remaining after 20 min
[4] = 60 min, read-out: % Remaining after 60 min

| Sequence | antitumor activity (Hepa-129 cells) | increase in the binding to FoxP3 with respect to p60 (SEQ ID NO: 1) (human FOXP3 (FOXP3-6His)) | effect on growth of CT26 colon cancer tumor (CT26 tumor cells; 10 nanomol/mice i.p. daily during 10 days after AH1/IFA, day 30 after injection of CT26) | tumor volume (CT26 tumor cells; day 30 after injection of CT26 tumor cells) | remaining at 20 min, 1 μM [1, 3] [%] | remaining at 1 h, 1 μM [1, 4] [%] | half-life ([1]; peptide 1 μM, read-out: t1/2) [min] | remaining at 20 min, 1 μM [2, 3] [%] | remaining at 1 h, 1 μM [2, 4] [%] | half-life ([2]; peptide 1 μM) [min] |
| --- | --- | --- | --- | --- | --- | --- | --- | --- | --- | --- |
| RAFQAFRKMWPFFAM [SEQ ID NO: 50] (cyclo(RAFQAFRKMWPFFAM); also: R1 and R2 form a linker birradical which is -C(=O)-) [head-to-tail cyclic peptide] | remarkable antitumor activity | more than 2100% | – | – | – | – | – | – | – | – |
| RDFQSFRKMWPFFAM [SEQ ID NO: 1, RDFQSFRKMWPFFAM, reference compound] | – | – | not efficient | about 2000 mm^3 | 0 | 0 | < 2.5 | 0 | 0 | < 2.5 |
